According to patent publication US20190076507A1, “Artificial Red Blood Cell Having Ability to Inhibit Conversion of Hemoglobin into Methemoglobin” (Public University Corporation Nara Medical University, priority 2016, published 2019):

Columns and labels:
Type in all cases: biochemical
HbO2 = molecular target: T1, HbO2 (Homo sapiens, UniProt P68871+P69905); test: Screening of suppressing effect of compounds against autoxidation of HbO2; conditions: for metHb conversion (%): HbO2 10 g/dL, antioxidant 1 g/dL, 37° C., 24 hours
T1 construct: The Hb released by hemolysis was filtered and collected, with the red blood cell membrane components (stroma) separated and removed; from tissue; host or cells: human red blood cells (expired donated blood); heat-treated, nanofiltered, purified and concentrated HbCO, photoconverted to HbO2
T1 sequence (P69905 2-142 limits assumed): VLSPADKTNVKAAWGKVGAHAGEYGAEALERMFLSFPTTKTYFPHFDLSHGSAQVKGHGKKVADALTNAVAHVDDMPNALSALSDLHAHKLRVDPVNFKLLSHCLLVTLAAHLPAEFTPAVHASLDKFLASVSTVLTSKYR
T1 sequence (P68871 2-147 limits assumed): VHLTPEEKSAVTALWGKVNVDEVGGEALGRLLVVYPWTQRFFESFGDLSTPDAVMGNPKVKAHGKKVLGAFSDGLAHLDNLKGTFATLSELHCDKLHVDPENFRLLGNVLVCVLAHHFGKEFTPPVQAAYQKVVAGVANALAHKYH
Protocol: NADH was purchased from Oriental Yeast Co. Ltd., and all the rest were purchased from Sigma-Aldrich (St. Louis, Mo., USA). HbCO solution was transferred to an eggplant flask and irradiated with visible light (halogen lamp; LPL Videeoligtvl-302, LPLCO. Ltd., Tokyo, Japan) under oxygen gas flow to convert to HbO2. […] The conversion ratios to metHb were determined from the visible absorption spectrum. The measurement of spectrum between 300 nm to 500 nm was conducted using a spectrophotometer (V-660, Japan Spectroscopic Company (JASCO)) mounted with a device to control the light scattering to the minimum (an integrating sphere). The atmosphere inside of a Thunberg cuvette was replaced with nitrogen gas and the conversion ratios to metHb were determined from the ratios of absorbance at 405 nm (λmax of metHb) and 430 nm (λmax of deoxyHb).

[1] = SOD (pseudo SOD) activity, pyrogallol method; conditions: for SOD / SOD pseudo activity (in words): Examples 1 and 7; for pseudo SOD: Table 1, pyrogallol, absorbance at 420 nm, Hb form and antioxidant conc. per entry
Protocol: (§1) The activity of NADH-cytochrome b5 reductase in the above-mentioned purified and concentrated HbCO solution was determined as NADH-ferricyanide reductase activity according to Beutler, E. above. Diluted Hb samples comprising the enzyme to be measured is mixed with a buffer comprising NADH. The mixed solutions were left standing for 10 minutes at 30° C., and then potassium ferricyanide (K3Fe (CN)6), the enzyme substrate, was added to start the enzyme reaction. The decrease of difference of absorbance at 340 nm, a characteristic absorption of NADH, per minute was measured to determine activity unit E (IU/gHb). […] It was reasoned that the heat-labile NADH-cytochrome b5 reductase was eliminated as denatured and insoluble, or denatured and inactivated, due to the introduction of heat treatment during the purifying step. In addition, activities of NADPH metHb reductase and NADPH diaphorase, which correspond to NADPH-flavin reductase are also determined by the above-mentioned methods according to Beutler, E. Diluted blood samples comprising the enzyme to be measured is mixed with a buffer comprising NADPH. The mixed solutions were left standing for 10 minutes at 37° C., and then methylene bleu (MeBl), the enzyme substrate, was added to start the enzyme reaction. The decrease of difference of absorbance at 340 nm, a characteristic absorption of NADPH, per minute was measured to determine activity unit E (IU/gHb). […] Catalase activity of the purified HbCO solution was determined from the change of the absorbance at 230 nm, the absorption wavelength of H2O2, according to Beutler, E. (RED CELL METABOLISM: A MANUAL OF BIOCHEMICAL METHOD, Grune &Stratton, Inc. pp. 105-106 (1987)). […] Pyrogallol was used for measurement of SOD activity (Marklund, S. and Marklund, G., Eur. J. Biochem. 47, 469-474 (1974); Roth, E. F. Jr. and Gilbert, H. S., Anal. Biochem. 137, 50-53(1984)). Pyrogallol is oxidized with oxygen to generate superoxide, and further reacted to generate a yellow dye with absorbance at 420 nm. SOD inhibits this reaction. SOD enzyme activity was determined based on this inhibitory activity. Analyzed specimens were solutions of purified HbO2, HbCO, metHb and solutions thereof further comprising NADH or L-tyrosine In addition, enzyme activity of crude SFHb solution was also determined as a control. […] When NADH and HbO2 were coexisted, however, high CAT and SOD pseudo activities (Table 1). […] The pseudo activity was detected when NADH alone was present, however, the activity was about a tenth ( 1/10) compared with when HbO2 was coexisted. […] There were results showing that this pseudo activity increased as more NADH was added.

[2] = Catalase (pseudo CAT) activity from change of absorbance at 230 nm of H2O2; conditions: for catalase / CAT pseudo activity (in words): Examples 1 and 7; for pseudo CAT: Table 1, NADH without Hb, calculated relative to Hb conc. of 1.5 mM (10 g/dL)
Protocol: as §1

Compound	metHb conversion (%) (HbO2)	other results
NC(=O)CC[C@H](N)C(=O)O [L-glutamine]	43%	–
13: oxyhemoglobin 1.5 mM prepared from the purified Hb solution, no antioxidant [Entry 13]	–	SOD / SOD pseudo activity (in words) [1]: no enzyme activity was found; catalase / CAT pseudo activity (in words) [2]: no enzyme activity was found
O=C1O[C@H]([C@@H](O)CO)C([O-])=C1O.[Na+] [sodium L-Ascorbate]	37%	–
N[C@@H](Cc1ccc(O)cc1)C(=O)O [L-tyrosine]	38%	–
NC(=O)c1cccnc1 [nicotinamide]	34%	–
NC(=O)C1=CN([C@@H]2O[C@H](COP(=O)(O)OP(=O)(O)OC[C@H]3O[C@@H](n4cnc5c(N)ncnc54)[C@H](O)[C@@H]3O)[C@@H](O)[C@H]2O)C=CC1 [Entry 10, NADH]	–	pseudo SOD [1]: 1.1 × 10^2 U/g Hb; pseudo CAT [2]: 3.6 × 10^4 *) IU/g Hb
CC1=C(/C=C/C(C)=C/C=C/C(C)=C/C=C/C=C(C)/C=C/C=C(C)/C=C/C2=C(C)C(=O)[C@@H](O)CC2(C)C)C(C)(C)C[C@H](O)C1=O [astaxanthin]	39%	–
NCCCC[C@H](N)C(=O)O [L-lysine]	34%	–
NC(=O)C1=CN([C@@H]2O[C@H](COP(=O)(O)OP(=O)(O)OC[C@H]3O[C@@H](n4cnc5c(N)ncnc54)[C@H](O)[C@@H]3O)[C@@H](O)[C@H]2O)C=CC1 [Entry 11, NADH]	–	pseudo SOD [1]: 1.3 × 10^2 U/g Hb; pseudo CAT [2]: 4.1 × 10^4 *) IU/g Hb
O=c1c(O)c(-c2ccc(O)c(O)c2)oc2cc(O)cc(O)c12 [quercetin]	42%	–
15: carbonyl Hb 1.5 mM prepared from the purified Hb solution, no antioxidant [Entry 15]	–	SOD / SOD pseudo activity (in words) [1]: no enzyme activity was found; catalase / CAT pseudo activity (in words) [2]: no enzyme activity was found
N[C@@H](Cc1c[nH]c2ccccc12)C(=O)O [L-tryptophan]	38%	–
N[C@@H](Cc1c[nH]cn1)C(=O)O [L-histidine]	32%	–
NC(=O)C1=CN([C@@H]2O[C@H](COP(=O)(O)OP(=O)(O)OC[C@H]3O[C@@H](n4cnc5c(N)ncnc54)[C@H](O)[C@@H]3O)[C@@H](O)[C@H]2O)C=CC1 [Entry 12, NADH]	–	pseudo SOD [1]: 0.6 × 10^2 U/g Hb; pseudo CAT [2]: 19.2 × 10^4 *) IU/g Hb
N=C(N)NCCC[C@H](N)C(=O)O [L-arginine]	38%	–
NC(=O)C1=CN([C@@H]2O[C@H](COP(=O)(O)OP(=O)(O)OC[C@H]3O[C@@H](n4cnc5c(N)ncnc54)[C@H](OP(=O)(O)O)[C@@H]3O)[C@@H](O)[C@H]2O)C=CC1 [NADPH, nicotinamide adenine dinucleotide phosphate (NADPH)]	37%	effect to suppress metHb conversion compared with NADH (HbO2; coexisting with HbO2 at 37° C. for 26 hours): inferior to that of NADH
N[C@@H](CS)C(=O)O [L-cysteine]	34%	–
NC(=O)C[C@H](N)C(=O)O [L-asparagine]	40%	–
Nc1ncnc2c1ncn2[C@@H]1O[C@H](COP(=O)(O)OP(=O)(O)OP(=O)(O)O)[C@@H](O)[C@H]1O [ATP]	44%	–
O=C([O-])[C@H](O)[C@@H](O)[C@H](O)[C@H](O)CO.[Na+] [sodium gluconate]	49%	–
CSCC[C@H](N)C(=O)O [L-methionine]	41%	–
O=C[C@H](O)[C@@H](O)[C@H](O)[C@H](O)CO [D-glucose]	36%	–
14: methemoglobin 1.5 mM prepared from the purified Hb solution, no antioxidant [Entry 14]	–	SOD / SOD pseudo activity (in words) [1]: no enzyme activity was found; catalase / CAT pseudo activity (in words) [2]: no enzyme activity was found
OCC(O)CO [glycerol]	38%	–
